Test results taken from the supplement of paper PMC10307832.

Legend:
Experiment in all cases: relative viability (nuclei count vs DMSO), 5 days (fraction); higher = more cells survive
Everolimus + Lapatinib = compound: CO[C@H]1C[C@@H]2CC[C@@H](C)[C@@](O)(O2)C(=O)C(=O)N2CCCC[C@H]2C(=O)O[C@H]([C@H](C)C[C@@H]2CC[C@@H](OCCO)[C@H](OC)C2)CC(=O)[C@H](C)/C=C(\C)[C@@H](O)[C@@H](OC)C(=O)[C@H](C)C[C@H](C)/C=C/C=C/C=C/1C [Everolimus] + CS(=O)(=O)CCNCc1ccc(-c2ccc3ncnc(Nc4ccc(OCc5cccc(F)c5)c(Cl)c4)c3c2)o1 [Lapatinib] (partner 2 µM)
Procedure, shortened: (§1)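 The day after seeding in 1536-well plates, lung cancer cell lines were treated by pin tool with a single drug, or with a fixed anchor-drug dose together with five library-drug doses (not always all listed) in √10 steps. After 5 days, a combined fix-and-stain solution (final 0.05% Triton X-100, 1% formaldehyde, 1 ug/ml Hoechst) was added. Nuclei counted on 4× images gave relative viability as treated counts over vehicle counts, reported as the median of duplicate plates.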

Everolimus + Crizotinib = compound: CO[C@H]1C[C@@H]2CC[C@@H](C)[C@@](O)(O2)C(=O)C(=O)N2CCCC[C@H]2C(=O)O[C@H]([C@H](C)C[C@@H]2CC[C@@H](OCCO)[C@H](OC)C2)CC(=O)[C@H](C)/C=C(\C)[C@@H](O)[C@@H](OC)C(=O)[C@H](C)C[C@H](C)/C=C/C=C/C=C/1C [Everolimus] + C[C@@H](Oc1cc(-c2cnn(C3CCNCC3)c2)cnc1N)c1c(Cl)ccc(F)c1Cl [Crizotinib] (partner 1 µM)
Procedure, shortened: as §1

Everolimus + Tozasertib = compound: CO[C@H]1C[C@@H]2CC[C@@H](C)[C@@](O)(O2)C(=O)C(=O)N2CCCC[C@H]2C(=O)O[C@H]([C@H](C)C[C@@H]2CC[C@@H](OCCO)[C@H](OC)C2)CC(=O)[C@H](C)/C=C(\C)[C@@H](O)[C@@H](OC)C(=O)[C@H](C)C[C@H](C)/C=C/C=C/C=C/1C [Everolimus] + Cc1cc(Nc2cc(N3CCN(C)CC3)nc(Sc3ccc(NC(=O)C4CC4)cc3)n2)n[nH]1 [Tozasertib] (partner 0.1 µM)
Procedure, shortened: as §1

Everolimus + Decitabine = compound: CO[C@H]1C[C@@H]2CC[C@@H](C)[C@@](O)(O2)C(=O)C(=O)N2CCCC[C@H]2C(=O)O[C@H]([C@H](C)C[C@@H]2CC[C@@H](OCCO)[C@H](OC)C2)CC(=O)[C@H](C)/C=C(\C)[C@@H](O)[C@@H](OC)C(=O)[C@H](C)C[C@H](C)/C=C/C=C/C=C/1C [Everolimus] + Nc1ncn([C@H]2C[C@H](O)[C@@H](CO)O2)c(=O)n1 [Decitabine] (partner 2 µM)
Procedure, shortened: as §1

Cell Line | relative viability (Everolimus + Lapatinib; first compound 0.01 µM) | relative viability (Everolimus + Lapatinib; first compound 0.03162 µM) | relative viability (Everolimus + Lapatinib; first compound 0.1 µM) | relative viability (Everolimus + Lapatinib; first compound 0.3162 µM) | relative viability (Everolimus + Lapatinib; first compound 1 µM) | relative viability (Everolimus + Crizotinib; first compound 0.01 µM) | relative viability (Everolimus + Crizotinib; first compound 0.03162 µM) | relative viability (Everolimus + Crizotinib; first compound 0.1 µM) | relative viability (Everolimus + Crizotinib; first compound 0.3162 µM) | relative viability (Everolimus + Crizotinib; first compound 1 µM) | relative viability (Everolimus + Tozasertib; first compound 0.01 µM) | relative viability (Everolimus + Tozasertib; first compound 0.03162 µM) | relative viability (Everolimus + Tozasertib; first compound 0.1 µM) | relative viability (Everolimus + Tozasertib; first compound 0.3162 µM) | relative viability (Everolimus + Tozasertib; first compound 1 µM) | relative viability (Everolimus + Decitabine; first compound 0.01 µM) | relative viability (Everolimus + Decitabine; first compound 0.03162 µM) | relative viability (Everolimus + Decitabine; first compound 0.1 µM) | relative viability (Everolimus + Decitabine; first compound 0.3162 µM) | relative viability (Everolimus + Decitabine; first compound 1 µM)
NCI-H1734 | 0.715 | 0.582 | 0.582 | 0.551 | 0.73 | 0.501 | 0.48 | 0.401 | 0.378 | 0.449 | 0.263 | 0.234 | 0.223 | 0.235 | 0.248 | 0.422 | 0.397 | 0.351 | 0.371 | 0.367
NCI-H1755 | 0.866 | 0.964 | 0.769 | 0.876 | 0.77 | 0.777 | 0.715 | 0.679 | 0.6 | 0.554 | 0.594 | 0.488 | 0.538 | 0.525 | 0.425 | 0.582 | 0.56 | 0.489 | 0.52 | 0.534
NCI-H1915 | 0.903 | 0.904 | 0.877 | 0.826 | 0.88 | 0.849 | 0.784 | 0.798 | 0.711 | 0.753 | 0.514 | 0.46 | 0.42 | 0.432 | 0.418 | 0.25 | 0.234 | 0.238 | 0.273 | 0.263
NCI-H1944 | 0.633 | 0.669 | 0.617 | 0.604 | 0.541 | 0.82 | 0.878 | 0.751 | 0.827 | 0.697 | 0.215 | 0.236 | 0.205 | 0.224 | 0.185 | 0.409 | 0.409 | 0.386 | 0.396 | 0.355
NCI-H1975 | 0.788 | 0.669 | 0.669 | 0.762 | 0.676 | 0.924 | 0.774 | 0.921 | 0.876 | 0.783 | 0.658 | 0.62 | 0.528 | 0.64 | 0.466 | 0.365 | 0.425 | 0.327 | 0.385 | 0.337
NCI-H1993 | 0.725 | 0.69 | 0.649 | 0.791 | 0.807 | 0.688 | 0.659 | 0.702 | 0.642 | 0.705 | 0.482 | 0.508 | 0.573 | 0.521 | 0.485 | 0.468 | 0.542 | 0.433 | 0.46 | 0.447
NCI-H2009 | 0.853 | 0.782 | 0.441 | 0.878 | 0.877 | 0.693 | 0.856 | 0.612 | 0.646 | 0.763 | 0.576 | 0.65 | 0.545 | 0.612 | 0.491 | 0.295 | 0.313 | 0.382 | 0.288 | 0.377
